Experimental data reported in patent US10710993B2, “Benzofuran pyrazole amine kinase inhibitor” (Hangzhou REX Pharmaceutical Co., LTD., priority 2016, dated 2020).

Legend:
TEL-ALK-F1174L-BaF3 = molecular target: T1, TEL-ALK-F1174L-BaF3 (Homo sapiens, UniProt Q9UM73, F1174L, cells depend on it); experiment: Cell proliferation experiment (Cell-Titer GLO), TEL-ALK-F1174L-BaF3; format: cell-based; settings: 72 h, read-out: IC50 TEL-ALK F1174L-BaF3
T1 construct: fused on or other part: TEL (ETV6) N-terminal oligomerising part fused before the ALK intracellular/kinase part; P41212 (Transcription factor ETV6)
Procedure: (§1) Compounds to be tested: Positive compound Ceritinib and the compounds obtained by the examples of the present invention.
(§2) Cell lines: Karpas-299 and NCI-H3122 which were purchased from the Nanjing kebai biotechnology Co. LTD; TEL-ALK-F1174L-BaF3, TEL-ALK-G1202R-BaF3, TEL-ALK-C1156Y-BaF3 and TEL-ALK-L1196M-BaF3 which were purchased from Hefei zhongkopruisheng biological medicine technology Co. LTD.
(§3) Method: Cells were seeded in 96-well plates for 24 h in growth media containing 10% fetalbovine serum (FBS) and cultured overnight at 37° C. The following day, serial dilutions of compounds or appropriate control were added to the designated wells, and cells were incubated at 37° C. for 72 h. A Cell Titer Glo assay (Promega) was then performed to determine the relative cell numbers. IC50 values were calculated by concentration-response curve fitting using a four-parameter analytical method with Graphpad 6.0. Drug inhibition rate (%)=100%−[OD(Compound)−OD(blank)]/[OD(vehicle)−OD(blank)]×100% Equation: […]

TEL-ALK-G1202R-BaF3 = molecular target: T2, TEL-ALK-G1202R-BaF3 (Homo sapiens, UniProt Q9UM73, G1202R, cells depend on it); experiment: Cell proliferation experiment (Cell-Titer GLO), TEL-ALK-G1202R-BaF3; format: cell-based; settings: 72 h, read-out: IC50 TEL-ALK G1202R-BaF3
T2 construct: fused on or other part: TEL (ETV6) N-terminal oligomerising part fused before the ALK intracellular/kinase part; P41212 (Transcription factor ETV6)
Procedure: as §1, §2, §3

Wild-Type ALK = molecular target: T3, Wild-Type ALK (Homo sapiens, UniProt Q9UM73); experiment: Z'-LYTE (FRET) ALK kinase inhibitory activity; format: biochemical
T3 construct: purchased Life Technology
Procedure: (§4) The kinase activity assay was determined by using kinase assay panel (Life Technology) and the result was in table 1.

ALK L1196M = molecular target: T4, ALK L1196M (Homo sapiens, UniProt Q9UM73, L1196M); experiment: LanthaScreen Eu Kinase Binding Assay (TR-FRET) on ALK mutant
T4 construct: purchased Life Technology
Text: Meanwhile, The LanthaScreen® Eu Kinase Binging Assay (TR-FRET) method was used for determining ALK Mutants (such as ALK L1196M) inhibitory activity IC50. LanthaScreen Eu kinase binding experiment detected Alexa Fluor conjugate or kinase “tracer” binding by adding Eu labeled antibodies or anti-label antibodies. The combination of tracer and antibody with kinase leads to a high level of FRET, whereas the use of kinase inhibitors in place of tracer may cause FRET loss.
as §4

NCI-H3122 = experiment: Cell proliferation experiment (Cell-Titer GLO), NCI-H3122; format: cell-based; settings: Homo sapiens, 72 h
Procedure: as §1, §2, §3

T4 sequence (Q9UM73 19-1620 L1196M): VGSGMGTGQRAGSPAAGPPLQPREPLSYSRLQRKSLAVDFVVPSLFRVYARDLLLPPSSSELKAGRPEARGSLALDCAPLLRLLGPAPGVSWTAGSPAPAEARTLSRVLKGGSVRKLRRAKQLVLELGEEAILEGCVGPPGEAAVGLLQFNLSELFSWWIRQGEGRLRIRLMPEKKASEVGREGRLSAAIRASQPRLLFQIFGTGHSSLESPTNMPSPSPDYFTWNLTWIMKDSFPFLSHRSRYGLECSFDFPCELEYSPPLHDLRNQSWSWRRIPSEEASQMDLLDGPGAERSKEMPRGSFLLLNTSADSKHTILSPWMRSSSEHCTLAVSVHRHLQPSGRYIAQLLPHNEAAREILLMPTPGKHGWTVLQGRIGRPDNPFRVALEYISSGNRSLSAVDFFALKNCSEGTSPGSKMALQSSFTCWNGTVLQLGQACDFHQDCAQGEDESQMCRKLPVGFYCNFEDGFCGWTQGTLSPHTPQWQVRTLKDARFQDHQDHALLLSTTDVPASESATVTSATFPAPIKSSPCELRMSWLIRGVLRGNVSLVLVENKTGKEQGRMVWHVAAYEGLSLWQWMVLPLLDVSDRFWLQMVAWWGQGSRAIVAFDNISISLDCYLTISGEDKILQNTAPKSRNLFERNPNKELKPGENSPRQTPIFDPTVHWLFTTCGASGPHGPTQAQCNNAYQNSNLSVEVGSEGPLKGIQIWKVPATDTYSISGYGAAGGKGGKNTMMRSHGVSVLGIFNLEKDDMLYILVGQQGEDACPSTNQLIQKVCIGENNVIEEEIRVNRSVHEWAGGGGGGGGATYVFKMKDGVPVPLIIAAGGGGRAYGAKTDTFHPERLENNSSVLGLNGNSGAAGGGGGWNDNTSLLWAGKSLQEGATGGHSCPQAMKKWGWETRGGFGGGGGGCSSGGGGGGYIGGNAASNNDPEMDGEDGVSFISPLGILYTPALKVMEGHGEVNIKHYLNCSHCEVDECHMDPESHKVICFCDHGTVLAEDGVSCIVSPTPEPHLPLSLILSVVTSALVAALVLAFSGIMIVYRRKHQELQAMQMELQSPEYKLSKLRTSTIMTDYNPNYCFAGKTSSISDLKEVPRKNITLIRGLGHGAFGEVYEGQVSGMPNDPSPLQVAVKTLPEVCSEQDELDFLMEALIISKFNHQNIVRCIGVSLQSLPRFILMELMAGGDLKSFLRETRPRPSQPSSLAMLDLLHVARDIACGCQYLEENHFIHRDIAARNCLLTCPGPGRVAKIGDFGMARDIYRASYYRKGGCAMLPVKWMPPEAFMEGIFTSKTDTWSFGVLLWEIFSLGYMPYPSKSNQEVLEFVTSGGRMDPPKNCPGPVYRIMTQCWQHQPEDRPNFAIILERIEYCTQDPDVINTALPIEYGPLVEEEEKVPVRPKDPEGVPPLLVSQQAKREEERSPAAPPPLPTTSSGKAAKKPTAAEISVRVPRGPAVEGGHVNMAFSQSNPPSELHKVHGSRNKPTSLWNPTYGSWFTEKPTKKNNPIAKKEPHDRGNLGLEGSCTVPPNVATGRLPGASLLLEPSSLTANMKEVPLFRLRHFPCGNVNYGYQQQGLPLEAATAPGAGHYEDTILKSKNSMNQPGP
T3 sequence (Q9UM73 19-1620): as the sequence (Q9UM73 19-1620 L1196M) above, with M1178L counted along it
T1 sequence (Q9UM73 whole entry F1174L, the tested form may be a part): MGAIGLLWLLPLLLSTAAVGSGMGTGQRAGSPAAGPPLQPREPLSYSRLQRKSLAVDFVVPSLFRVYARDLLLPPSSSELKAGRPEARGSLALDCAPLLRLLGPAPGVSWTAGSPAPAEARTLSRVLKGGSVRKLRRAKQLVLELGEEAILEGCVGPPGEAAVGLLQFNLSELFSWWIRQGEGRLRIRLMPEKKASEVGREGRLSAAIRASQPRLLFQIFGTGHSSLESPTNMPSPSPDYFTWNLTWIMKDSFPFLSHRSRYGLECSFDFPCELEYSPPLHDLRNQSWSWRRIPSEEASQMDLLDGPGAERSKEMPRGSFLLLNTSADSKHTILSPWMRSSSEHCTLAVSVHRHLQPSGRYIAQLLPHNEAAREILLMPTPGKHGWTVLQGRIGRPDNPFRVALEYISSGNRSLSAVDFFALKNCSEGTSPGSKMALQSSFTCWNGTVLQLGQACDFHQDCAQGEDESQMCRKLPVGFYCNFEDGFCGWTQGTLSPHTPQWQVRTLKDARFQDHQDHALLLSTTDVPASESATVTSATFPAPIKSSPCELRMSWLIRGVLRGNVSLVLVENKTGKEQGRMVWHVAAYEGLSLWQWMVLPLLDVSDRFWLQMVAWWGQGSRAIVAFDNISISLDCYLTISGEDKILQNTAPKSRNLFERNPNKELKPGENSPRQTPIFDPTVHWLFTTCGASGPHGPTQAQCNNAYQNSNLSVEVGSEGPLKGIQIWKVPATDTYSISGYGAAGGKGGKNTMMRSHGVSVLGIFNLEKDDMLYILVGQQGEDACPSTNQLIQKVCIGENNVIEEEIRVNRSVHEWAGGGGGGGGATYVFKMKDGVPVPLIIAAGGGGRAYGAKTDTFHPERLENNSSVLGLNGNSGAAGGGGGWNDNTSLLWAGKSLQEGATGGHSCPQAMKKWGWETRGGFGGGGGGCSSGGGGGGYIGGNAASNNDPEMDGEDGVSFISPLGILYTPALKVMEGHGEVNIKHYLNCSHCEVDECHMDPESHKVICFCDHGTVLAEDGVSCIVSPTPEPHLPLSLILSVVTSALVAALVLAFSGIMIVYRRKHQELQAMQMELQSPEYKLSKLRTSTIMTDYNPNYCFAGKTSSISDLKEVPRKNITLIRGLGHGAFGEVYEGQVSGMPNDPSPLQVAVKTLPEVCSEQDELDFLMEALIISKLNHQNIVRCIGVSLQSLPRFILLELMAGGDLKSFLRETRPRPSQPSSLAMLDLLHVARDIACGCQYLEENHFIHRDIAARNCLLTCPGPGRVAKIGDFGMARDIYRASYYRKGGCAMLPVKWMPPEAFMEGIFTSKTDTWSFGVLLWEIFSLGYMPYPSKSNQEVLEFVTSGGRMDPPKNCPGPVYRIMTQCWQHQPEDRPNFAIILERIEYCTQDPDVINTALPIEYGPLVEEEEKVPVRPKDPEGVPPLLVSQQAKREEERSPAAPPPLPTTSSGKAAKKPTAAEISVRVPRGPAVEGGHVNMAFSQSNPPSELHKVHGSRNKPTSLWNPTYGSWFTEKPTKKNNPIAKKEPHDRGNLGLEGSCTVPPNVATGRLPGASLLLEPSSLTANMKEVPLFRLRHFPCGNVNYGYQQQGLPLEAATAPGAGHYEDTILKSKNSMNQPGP
T2 sequence (Q9UM73 whole entry G1202R, the tested form may be a part): as the sequence (Q9UM73 whole entry F1174L, the tested form may be a part) above, with L1174F, G1202R counted along it

GI50 (TEL-ALK-F1174L-BaF3) [nM]	GI50 (TEL-ALK-G1202R-BaF3) [nM]	IC50 (Wild-Type ALK) [nM]	IC50 (ALK L1196M) [nM]	IC50 (NCI-H3122) [nM]	Structure (SMILES)
11.4	> 180				CC(C)S(=O)(=O)c1nn(C)cc1Nc1nc(Nc2cc(F)c(C3CCN(C)CC3)c3c2O[C@H](C)C3)ncc1C(F)(F)F [REX-D8, (R)—N^2-(5-fluoro-2-methyl-4-(1-methylpiperidin-4-yl)-2,3-dihydrobenzofuran-7-yl)-N^4-(3-(isopropylsulfonyl)-1-methyl-1H-pyrazol-4-yl)-5-(trifluoromethyl)pyrimidine-2,4-diamine]
> 500	> 180				Cc1cc(Nc2nc(Nc3cn(C)nc3S(=O)(=O)C(C)C)c3sccc3n2)c2c(c1C1CCN(C)CC1)C[C@@H](C)O2 [REX-D30, (R)—N^2-(2,5-dimethyl-4-(1-methylpiperidin-4-yl)-2,3-dihydrobenzofuran-7-yl)-N^4-(3-(isopropylsulfonyl)-1-methyl-1H-pyrazol-4-yl)thieno[3,2-d]pyrimidine-2,4-diamine]
10.7	> 180	8.46	< 0.5	10.6	Cc1cc(Nc2ncc(Cl)c(Nc3cn(C)nc3S(=O)(=O)C(C)C)n2)c2c(c1C1CCN(CCO)CC1)C[C@@H](C)O2 [REX-D11, (R)-2-(4-(7-((5-chloro-4-((3-(isopropylsulfonyl)-1-methyl-1H-pyrazol-4-yl)amino)pyrimidin-2-yl)amino)-2,5-dimethyl-2,3-dihydrobenzofuran-4-yl)piperidin-1-yl)ethanol]
94.8	> 180				Cc1cc(Nc2ncc(Cl)c(Nc3cn(C4CC4)nc3S(=O)(=O)CC(C)C)n2)c2c(c1C1CCNCC1)C[C@@H](C)O2 [REX-D40, (R)-5-chloro-N^4-(1-cyclopropyl-3-(isobutylsulfonyl)-1H-pyrazol-4-yl)-N^2-(2,5-dimethyl-4-(piperidin-4-yl)-2,3-dihydrobenzofuran-7-yl)pyrimidine-2,4-diamine]
23.7	> 180				Cc1cc(Nc2ncc(Cl)c(Nc3cn(C4CC4)nc3S(=O)(=O)CC(C)C)n2)c2c(c1C1CCN(C)CC1)C[C@@H](C)O2 [REX-D41, (R)-5-chloro-N^4-(1-cyclopropyl-3-(isobutylsulfonyl)-1H-pyrazol-4-yl)-N^2-(2,5-dimethyl-4-(1-methylpiperidin-4-yl)-2,3-dihydrobenzofuran-7-yl)pyrimidine-2,4-diamine]
26.1	> 180	9.4	1.12	13.9	Cc1cc(Nc2ncc(Cl)c(Nc3cn(C4CC4)nc3S(=O)(=O)C(C)C)n2)c2c(c1C1CCN(C)CC1)C[C@@H](C)O2 [REX-D34, (R)-5-chloro-N^4-(1-cyclopropyl-3-(isopropylsulfonyl)-1H-pyrazol-4-yl)-N^2-(2,5-dimethyl-4-(1-methylpiperidin-4-yl)-2,3-dihydrobenzofuran-7-yl)pyrimidine-2,4-diamine]
17.8	> 180				CC(C)S(=O)(=O)c1nn(C)cc1Nc1nc(Nc2cc(F)c(C3CCNCC3)c3c2O[C@H](C)C3)ncc1Cl [REX-D21, (R)-5-chloro-N^2-(5-fluoro-2-methyl-4-(piperidin-4-yl)-2,3-dihydrobenzofuran-7-yl)-N^4-(3-(isopropylsulfonyl)-1-methyl-1H-pyrazol-4-yl)pyrimidine-2,4-diamine]
80.1	> 180	15	< 0.5	10.7	Cc1cc(Nc2ncc(C(F)(F)F)c(Nc3cn(C)nc3S(=O)(=O)C(C)C)n2)c2c(c1C1CCN(CCO)CC1)C[C@@H](C)O2 [REX-D5, (R)-2-(4-(7-((4-((3-(isopropylsulfonyl)-1-methyl-1H-pyrazol-4-yl)amino)-5-(trifluoromethyl)pyrimidin-2-yl)amino)-2,5-dimethyl-2,3-dihydrobenzofuran-4-yl)piperidin-1-yl)ethanol]
22.4	> 180	9.28	0.55	11.4	CCn1cc(Nc2nc(Nc3cc(C)c(C4CCN(C)CC4)c4c3O[C@H](C)C4)ncc2Cl)c(S(=O)(=O)C(C)C)n1 [REX-D36, (R)-5-chloro-N^2-(2,5-dimethyl-4-(1-methylpiperidin-4-yl)-2,3-dihydrobenzofuran-7-yl)-N^4-(1-ethyl-3-(isopropylsulfonyl)-1H-pyrazol-4-yl)pyrimidine-2,4-diamine]
58.7	> 180				Cc1cc(Nc2ncc(Cl)c(Nc3cn(C)nc3S(=O)(=O)CC(C)C)n2)c2c(c1C1CCNCC1)C[C@@H](C)O2 [REX-D37, (R)-5-chloro-N^2-(2,5-dimethyl-4-(piperidin-4-yl)-2,3-dihydrobenzofuran-7-yl)-N^4-(3-(isobutylsulfonyl)-1-methyl-1H-pyrazol-4-yl)pyrimidine-2,4-diamine]
< 10	> 180				Cc1cc(Nc2ncc(Cl)c(Nc3cn(C)nc3S(=O)(=O)CC(C)C)n2)c2c(c1C1CCN(CCO)CC1)C[C@@H](C)O2 [REX-D39, (R)-2-(4-(7-((5-chloro-4-((3-(isobutylsulfonyl)-1-methyl-1H-pyrazol-4-yl)amino)pyrimidin-2-yl)amino)-2,5-dimethyl-2,3-dihydrobenzofuran-4-yl)piperidin-1-yl)ethanol]
< 10	> 180				Cc1cc(Nc2ncc(Cl)c(Nc3cn(C)nc3S(=O)(=O)CC(C)C)n2)c2c(c1C1CCN(C)CC1)C[C@@H](C)O2 [REX-D38, (R)-5-chloro-N^2-(2,5-dimethyl-4-(1-methylpiperidin-4-yl)-2,3-dihydrobenzofuran-7-yl)-N^4-(3-(isobutylsulfonyl)-1-methyl-1H-pyrazol-4-yl)pyrimidine-2,4-diamine]
11.1	> 180				Cc1cc(Nc2ncc(Cl)c(Nc3cn(C)nc3S(=O)(=O)C(C)C)n2)c2c(c1C1CCN(C)CC1)CCC(C)O2 (centres unmarked) [REX-D25, 5-chloro-N^2-(2,6-dimethyl-5-(1-methylpiperidin-4-yl)chroman-8-yl)-N^4-(3-(isopropylsulfonyl)-1-methyl-1H-pyrazol-4-yl)pyrimidine-2,4-diamine]
< 10	> 180				CC(C)S(=O)(=O)c1nn(C)cc1Nc1nc(Nc2cc(F)c(C3CCN(C)CC3)c3c2O[C@H](C)C3)ncc1Cl [REX-D24, (R)-5-chloro-N^2-(5-fluoro-2-methyl-4-(1-methylpiperidin-4-yl)-2,3-dihydrobenzofuran-7-yl)-N^4-(3-(isopropylsulfonyl)-1-methyl-1H-pyrazol-4-yl)pyrimidine-2,4-diamine]
> 500	> 180				Cc1cc(Nc2nc(Nc3cn(C)nc3S(=O)(=O)C(C)C)c3sccc3n2)c2c(c1C1CCNCC1)C[C@@H](C)O2 [REX-D29, (R)—N^2-(2,5-dimethyl-4-(piperidin-4-yl)-2,3-dihydrobenzofuran-7-yl)-N^4-(3-(isopropylsulfonyl)-1-methyl-1H-pyrazol-4-yl)thieno[3,2-d]pyrimidine-2,4-diamine]
32.6	> 180				Cc1cc(Nc2ncc(Cl)c(Nc3cn(C)nc3S(=O)(=O)C(C)C)n2)c2c(c1C1CCNCC1)CCC(C)O2 (centres unmarked) [REX-D22, 5-chloro-N^2-(2,6-dimethyl-5-(piperidin-4-yl)chroman-8-yl)-N^4-(3-(isopropylsulfonyl)-1-methyl-1H-pyrazol-4-yl)pyrimidine-2,4-diamine]
